Laboratory results from patent publication US20060030497A1, “Conveyor track or container lubricant compositions” (priority 2004, published 2006).

Test: Spreading test: drop on a polybutene surface in a Petri dish, compared with water
Format: physicochemical
Details: water containing 0.1% by weight of spreading agent; drop of 50μ on polybutene; pure water about 10 mm
Source text: Compositions of the present invention have the advantage that they spread more efficiently and completely on polymeric conveyor surfaces than previously known conveyor lubricant compositions containing polydimethylsiloxane. […] When the lubricant is applied to a polymeric conveyor surface, the conveyor surface soon becomes very hydrophobic due to the adsorption and/or absorption of the silicone oil lubricant on the surface. The lubricant persists on the surface so that it presents a very hydrophobic surface to subsequently applied lubricant. The lubricants of the present invention readily wet the oil soaked silicone lubricant surface as evidenced by the lubricants rapidly spreading on the surface without beading. […]
A useful test to determine the spreading ratios of the lubricants of the present invention is to compare spreading on a standard polybutene surface in a Petri dish. In this test, a drop of 50μ of the composition to be measured is applied to a polybutene surface in a Petri dish and after 30 seconds the linear movement of the liquid is measured by taking the average diameter of the substantially circular liquid. Pure water has been measured to have a diameter of about 10 mm. […]
The compositions prepared above were diluted at a ratio of 1 part lubricant to 200 parts water. […] The spreading ratio of the lubricant was measured using the test as described above. […]

heptamethyl trisiloxane with a hydroxy terminated polyethyleneoxide pendant group [Silwet® L-7608]
movement of the drop (average diameter of the liquid) after 30 seconds: 110 mm
